# Laboratory results taken from patent publication US20220193111A1, “Method of Treatment” (The University Court of the University of Edinburgh, priority 2018, published 2022).
# Test system: HUVECs treated with TNF-α/IL-1β
# Assay: Rescue of TNF-α/IL-1β-induced EndMT in HUVECs
# Type: cell-based, human
# Details: 10 μM, HUVECs with TNF-α/IL-1β 6 days
# Experimental: Human umbilical vein ECs (HUVECs; Lonza) were grown in EGM-2 (comprising EBM-2 with growth factors and other supplements) with 2% Foetal Bovine Serum. Confluent HUVECs were treated with 10 ng/ml TNF-α, IL-1β, TGFβ2 (PeproTech); medium and cytokines were changed every two days. SB431542 (Tocris) has been used at the dose of 10 μM. HEK293T cells (ATCC®, CRL-11268) were cultured in D-MEM with 10% FBS (Life Technologies).
# Total RNA was extracted using miReasy kit (Qiagen). Real-time quantification to measure miRNAs was performed with the TaqMan miRNA reverse transcription kit and miRNA assay (Life Technology) using Lightcycler 480 (Roche). miRNAs expression was normalized to the U6 […] (snRU6). For mRNA analysis, cDNA was amplified by quantitative real-time PCR (qPCR) and normalized to 18S ribosomal RNA. Each reaction was performed in triplicate. Quantification was performed by the 2^−ΔΔCt method^52. qPCR was used to measure the expression of miR-148b (miR-148b-3p Thermo Fisher Scientific, Cat. #4426961), snRU6 (ThermoFisher Scientific, Cat. #4331182), TGFβ2, SMAD2, CD31, VE-Cadherin, COL1A1, α-SMA, SLUG, VIM, SNAIL, TWIST, ZEB1/2 and 18S rRNA. Primers are pre-designed from Sigma (KiCgStart™ Primers).
# Lipofectamine RNAiMAX (Thermo Fisher Scientific) was used to transfect HUVECs with miR-148b mimic, anti-miR-148b and mimic or anti-miR control (25 nM and […], respectively final concentration) or with siRNA targeting SMAD2 (20 nM final concentration), according to the manufacturer's instructions. jetPEI-HUVECs (Polyplus) was used to transfect HUVECs with DNA plasmids. The following functional assays were performed: BrdU incorporation assay using Cell Proliferation colorimetric assay (Roche); Matrigel assay with HUVECs was performed as previously described using BD Matrigel Basement Membrane Matrix (BD Biosciences)^53.
# Proteins were extracted from cultured cells or muscles by using ice-cold buffer A (50 mM Hepes, 150 mM NaCl, 1 mM EDTA, 1 mM EGTA, 25 mM NaF, 5 mM NaPPi, 1%Triton, 1% NP40, 1 mM Na3VO4, 0.25% sodium deoxycholate, 0.5 mM Na-orthovanadate, 1 mM benzamidine, 0.1 mM phenylmethylsulfonyl fluoride). Protein concentration was determined using the Bio-Rad Protein Assay Reagent (Bio-Rad Laboratories, UK). Detection of proteins by Western blot analyses was done following separation of whole cell extracts (20 μg) on SDS-polyacrylamide gels. Proteins were transferred to nitrocellulose membranes and probed with the following antibodies: TGFβ2 (Abcam, ab36495, 1:1000), SMAD2 (SantaCruz Biotechnology, Santa Cruz, Calif., USA; #3102, 1:1000), p-SMAD2 (465/467) (Cell Signaling; #3108, 1:1000); CD31 (Abcam., 1:1000), VE-Cadherin (Abcam, ab33168, 1:1000), COL1A1 (Abcam, ab138492, 1:200), FSP-1 (5100A4; Abcam, ab41532, 1:1000), SLUG (Abcam, ab27568, 1:1000), β-actin (Abcam, ab16039, 1:4000), HDAC3 (GeneTex GTX113303, 1:1000) and GAPDH (GeneTex, GT239, 1:1000) (both used as loading control). For detection, the inventors used secondary antibodies conjugated to horseradish peroxidase which were rabbit anti-mouse (Abcam, ab97046, 1:5000) and goat anti-rabbit (Abcam, ab6721, 1:10000). Detection was developed by chemiluminescence reaction (ECL) (Immunoblot, Millipore, 23225).
# Cells were fixed using 4% paraformaldehyde in PBS at room temperature for 15 min. For intracellular staining, fixed cells were permeabilized using 0.5% Triton X-100 in PBS (Sigma-Aldrich) or 0.1% Saponin in PBS at room temperature for 10 min. The blocking of […] antibody activity was performed using 3% bovine serum albumin (BSA) in PBS for 1 hour. Samples were incubated with antibodies to CD31 (Abcam, ab28364, 1:50), VE-cadherin (Abcam, ab33168, 1:100), FSP-1 (Abcam, ab41532, 1:200) and COL1A1 (Abcam, ab138492, 1:100) in PBS containing 1% BSA at 4° C. overnight. […]
smiles,measurement,setting,value
"NC(=O)c1ccc(-c2nc(-c3ccc4c(c3)OCO4)c(-c3ccccn3)[nH]2)cc1 [SB431542, reference compound]","endothelial markers (CD31, VE-Cadherin) expression",,did not rescue
same,level of SMAD2 phosphorylation,,reduced
same,"endothelial markers (CD31, VE-Cadherin) expression",listed as SB43152,did not restore
